Like-named read-outs stand apart in the source and are kept apart here.
Tests used:
[1] = tested on: cerebral ischemia-reperfusion injury; conditions: rat; cited from earlier work
[2] = tested on: primary rat cortical neurons; assay: Neurite outgrowth of primary rat cortical neurons (MAP-2 immunocytochemistry)
[3] = in vivo, cited from earlier work
[4] = molecular target: T1, Serotonin (5-Hydroxytryptamine) 5-HT2A (Homo sapiens, UniProt P28223); assay: biochemical; assay type: binding
T1 construct: purchased Eurofins Panlabs, Inc. 271650

[5] = molecular target: T2, sigma-1 receptor (Homo sapiens, UniProt Q99720)
Description: (§1) IC50 values were determined by a non-linear, least squares regression analysis using MathIQ™ (ID Business Solutions Ltd., UK). […] The Hill coefficient (nH), defining the slope of the competitive binding curve, was calculated using MathIQ™.
(§2) Biochemical assay results are presented as the percent inhibition of specific binding or activity. All other results are expressed in terms of that assay's quantitation method. Primary screening in duplicate with semi-quantitative data (e.g., estimated IC50, Ki and nH) are shown.

[6] = molecular target: T2, sigma-1 receptor; assay: biochemical; conditions: for IC50: IC50, estimated, duplicate; for Ki: Cheng and Prusoff
Description: as §1, §2

T1 sequence (P28223 whole entry): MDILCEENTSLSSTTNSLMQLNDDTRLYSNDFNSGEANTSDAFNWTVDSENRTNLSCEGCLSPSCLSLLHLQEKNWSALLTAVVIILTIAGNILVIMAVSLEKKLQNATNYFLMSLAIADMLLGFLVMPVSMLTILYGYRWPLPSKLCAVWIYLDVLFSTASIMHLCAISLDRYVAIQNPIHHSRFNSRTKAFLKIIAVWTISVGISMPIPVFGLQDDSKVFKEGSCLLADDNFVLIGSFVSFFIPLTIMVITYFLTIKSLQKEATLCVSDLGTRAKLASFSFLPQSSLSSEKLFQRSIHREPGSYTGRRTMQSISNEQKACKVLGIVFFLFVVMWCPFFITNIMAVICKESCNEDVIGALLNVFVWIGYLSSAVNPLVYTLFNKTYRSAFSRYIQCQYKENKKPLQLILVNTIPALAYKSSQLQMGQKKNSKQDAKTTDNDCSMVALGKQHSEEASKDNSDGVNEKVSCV
T2 sequence (Q99720 whole entry): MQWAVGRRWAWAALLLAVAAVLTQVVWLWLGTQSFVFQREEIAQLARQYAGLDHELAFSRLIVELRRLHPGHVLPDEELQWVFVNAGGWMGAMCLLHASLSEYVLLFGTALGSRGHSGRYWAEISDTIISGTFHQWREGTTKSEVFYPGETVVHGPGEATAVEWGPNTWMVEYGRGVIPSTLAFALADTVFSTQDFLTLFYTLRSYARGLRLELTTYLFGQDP

SMILES	nH (Hill coefficient) [4]	% Inh. ([4]; 0.003 µM) [%]	% Inh. ([4]; 0.3 µM) [%]	IC50 [4] [nM]	Ki [4] [nM]	nH (Hill coefficient) [5]	% Inh. ([5]; 0.03 μM) [%]	% Inh. ([5]; 0.1 μM) [%]	% Inh. ([5]; 0.5 μM) [%]	% Inh. ([5]; 1 μM) [%]	% Inh. ([5]; 10 μM) [%]	IC50 [6] [nM]	Ki [6] [nM]	% Inh. ([4]; 0.01 µM) [%]	% Inh. ([4]; 0.03 μM) [%]	% Inh. ([4]; 1 μM) [%]	inhibition at 0.1 µM ([4]; read-out: % Inh.) [%]	inhibition at 3 µM ([4]; read-out: % Inh.) [%]	inhibition at 10 µM ([4]; read-out: % Inh.) [%]	% Inh. ([5]; 10 nM, 0.01 µM) [%]	further results
CN(C)CCc1c[nH]c2ccccc12 [DMT, N, N-Dimethyltryptamine]	–	–	–	–	–	–	–	–	–	–	–	–	–	–	–	–	–	–	–	–	functional recovery [1]: improved; infarct (dead cells) volume [1]: reduced; neurite outgrowth of rat cortical neurons ([2]; DMT stimulation, overall): showed beneficial effects; oral availability ([3]; po): not orally available; half-life [3]: 15 min
CNC1(c2ccccc2Cl)CCCCC1=O (stereo not drawn) [Ketamine]	–	–	–	–	–	–	–	–	–	–	–	–	–	–	–	–	–	–	–	–	neurite outgrowth ([2]; 10 nM, 1-72 h stimulation): did not show any significant beneficial effects
CN(C)CCc1c[nH]c2ccccc12.O=C(O)/C=C/C(=O)O [N,N-Dimethyltryptamine fumarate, reference compound]	0.75	8	48	250	71	0.76	15	7	5	14	50	10200	5280	–	–	–	–	–	–	–	% Inh. ([4]; 0.1 μM): 26%; % Inh. ([4]; 3 µM): 93%; % Inh. ([4]; 10 μM): 98%; inhibition at 0.01 µM ([4]; read-out: % Inh.): 15%; inhibition at 0.03 µM ([4]; read-out: % Inh.): 24%; inhibition at 1 µM ([4]; read-out: % Inh.): 76%; % Inh. ([5]; 10 nM): 6%; inhibition at 5 µM ([6]; read-out: % Inh., 5 μM): 36%; inhibition at 16 µM ([6]; read-out: % Inh., 16 μM): 59%
CN(C)CCc1c[nH]c2ccccc12 [N,N-Dimethyltryptamine nicotinate]	0.71	–	31	600	170	–	−9	−3	−13	5	44	–	–	14	17	59	19	79	92	−6	inhibition at 0.003 µM ([4]; read-out: % Inh.): 7%; % Inh. ([5]; 5 μM): 23%; % Inh. ([5]; 16 μM): 44%; binding affinity to sigma-1-receptors ([5]; at concentrations above 0.5 μM): good binding affinity
CN(C)CCc1c[nH]c2ccccc12 [N,N-Dimethyltryptamine pamoate]	0.92	2	–	190	54	1.35	−10	0	1	6	–	6310	3250	10	20	86	34	95	100	−14	5HT2A binding compared to DMT fumarate [4]: improved 5HT2A binding; inhibition at 0.3 µM ([4]; read-out: % Inh.): 56%; % Inh. ([5]; 5 μM): 45%; % Inh. ([5]; 16 μM): 77%; affinity to sigma-1 receptors compared to DMT fumarate ([5]; at concentrations above 1 μM): better affinity; inhibition at 10 µM ([6]; read-out: % Inh., 10 μM): 64%
